Data: publication PMC8022858, “Discovery of bone morphogenetic protein 7-derived peptide sequences that attenuate the human osteoarthritic chondrocyte phenotype” (Molecular Therapy. Methods & Clinical Development, 2021)

What was measured:
[1] = test system: human OA infra-patellar fat pad (IPFP) explants; experiment: PGE2 levels in culture supernatant of IPFP explants; type: cell-based; conditions: n = 5 donors, 24 h, relative to control (Figure 6E)
Experimental: (§1) Figure 6 Peptide p[63−82] activity on OA knee joint tissues Human OA knee joint tissues were cultured for 24 h in the presence of BMP7, peptide p[63−82], or the scrambled version of peptide p[63−82] and compared to control conditions. (A) Cartilage tissues (n = 7 individual donors) were exposed to shown conditions and analyzed for COL2A1, COL10A1, and COX-2 mRNA expression by quantitative real-time PCR (normalized for 28S rRNA expression and relative to control conditions). (B) GAG release in medium from cartilage tissues (n = 5 individual donors) was determined, and data were calculated relative to the control condition. (C) PGE2 levels in culture supernatant from synovium (n = 5 donors). (D) PGE2 levels in culture supernatant from cartilage tissues from (B) (n = 5 donors). (E) PGE2 levels in culture supernatant from IPFP (n = 5 donors). (F) PGE2 levels in culture supernatant from the meniscus. Synovium, IPFP, and meniscus tissues were from the same 5 donors as the cartilage tissues in (B) and (C). PGE2 levels in conditions were calculated relative to controls for each donor. In graphs, error bars represent mean ± SEM; data are presented relative to the control condition for each time point. Statistical differences (unpaired two-tailed Student’s t test) were calculated to control condition: ∗p < 0.05, ∗∗p < 0.01, and ∗∗∗p < 0.001. […]

[2] = test system: human OA cartilage explants; experiment: PGE2 levels in culture supernatant of cartilage explants; type: cell-based; conditions: n = 5 donors, 24 h, relative to control (Figure 6D)
Experimental: as §1

[3] = test system: OA-HACs; experiment: Duration of chondrocyte phenotype modulation, single versus multiple peptide addition, 10-day follow-up; type: cell-based, human; conditions: 100 nM; for COL10A1 gene expression, continuous exposure / inhibition of MMP13 and COX-2 expression, continuous exposure / COL2A1 mRNA expression, continuous exposure / inhibition of COL10A1, MMP13, and COX-2 gene expression after single dose, up to and including day / expression of COL10A1, MMP13, and COX-2 at day 10, single dose / timing of action on COL2A1 after single dose: OA-HAC pool (n = 3 donors); for COL10A1 gene expression, continuous exposure / inhibition of MMP13 and COX-2 expression, continuous exposure: multiple addition; for COL10A1 gene expression, continuous exposure: 10 days (Figure 4B); for inhibition of MMP13 and COX-2 expression, continuous exposure: 10 days (Figures 4C, 4D); for COL2A1 mRNA expression, continuous exposure: peptide added every other day (multiple), 10 days (Figure 4A); for inhibition of COL10A1, MMP13, and COX-2 gene expression after single dose, up to and including day: single dose at start, sampled every 2 days; for timing of action on COL2A1 after single dose: compared with timing for COL10A1, MMP13, COX-2; for detectable changes in chondrocyte gene expression phenotype after a single exposure: OA-HAC pool
Experimental: The duration of chondrocyte phenotypic change induced by candidate peptides p[63−82] and p[113−132] was determined by exposing OA-HACs to a single dose of peptide or continuously keeping the peptides present during OA-HAC culture. In both cases, the phenotype of the OA-HACs was analyzed every other day during a 10-day follow-up. Non-OA-HACs were used as a reference for chondrocyte phenotype status.
Figure 4 Duration of chondrocyte phenotype modulation by BMP7-derived peptides A pool of OA-HACs (n = 3 donors) was cultured in the presence or absence of 100 nM peptides p[63−82] or p[113−132] and compared to a pool of human articular chondrocytes from a non-OA source. The medium was changed every 2 days. Peptides were added at the start of the experiment and subsequently at every medium change (multiple) or only at the start of the experiment and not during every subsequent medium change (single). At days 0, 2, 4, 6, 8, and 10 in culture, samples were harvested and analyzed for the expression of the indicated mRNAs by quantitative real-time PCR (normalized for 28S rRNA expression) (A) COL2A1 mRNA expression. (B) COL10A1 mRNA expression. (C) MMP13 mRNA expression. (D) COX-2 mRNA expression. In graphs, error bars represent mean ± SEM; data are presented relative to the “control OA” condition of each time point. Statistical differences were calculated to control conditions. Error bars represent mean ± SEM, and statistical significance for peptide conditions or control non-OA versus control OA condition as determined by unpaired two-tailed Student’s t test is represented as ∗p < 0.05, ∗∗p < 0.01, and ∗∗∗p < 0.001.
For the peptide-screening and alanine-scanning experiments, cDNA was prepared using the Cells-to-Ct kit (Invitrogen) according to the manufacturer’s protocol. For the other experiments, cells or homogenized tissues (Mikro-Dismembrator; Braun Biotech International) were lysed in TRIzol (Life Technologies) and RNA isolation and cDNA synthesis were performed as described earlier.[27]^,[57] Quantitative real-time PCR was performed using Takyon qPCR Master Mix plus blue for SYBR Green (Eurogentec). A CFX96 Real-Time PCR Detection System (Bio-Rad) was used for amplification: initial denaturation 95°C for 10 min, followed by 40 cycles of amplification (denaturing 15 s at 95°C and annealing 1 min at 60°C). Data were analyzed using the standard curve method, mRNA expression was normalized to a reference gene (28S rRNA), and gene expression was calculated as fold change as compared to control conditions.

Substance	PGE2 levels from IPFP explants [1]	PGE2 levels from cartilage explants [2]	COL10A1 gene expression, continuous exposure [3]	inhibition of MMP13 and COX-2 expression, continuous exposure [3]	COL2A1 mRNA expression, continuous exposure [3]	inhibition of COL10A1, MMP13, and COX-2 gene expression after single dose, up to and including day [3]	expression of COL10A1, MMP13, and COX-2 at day 10, single dose [3]	timing of action on COL2A1 after single dose [3]	detectable changes in chondrocyte gene expression phenotype after a single exposure [3]
BMP7: full-length recombinant bone morphogenetic protein 7 (R&D Systems), used at 1 nM	reduced	reduced	–	–	–	–	–	–	–
H-AAYYSEGESAFPLNSYMNAT-OH [p[63−82]]	reduced	reduced	steadily decreased over time	continuously observed during the treatment period	overtime increasing	up to 8 day	indistinguishable from non-treated OA HACs	not detectable anymore from day 8 onward	up to 8 days
H-SVLYFDDSSNVILKKYRNMV-OH [p[113−132]]	–	–	steadily decreased over time	continuously observed during the treatment period	overtime increasing	up to 8 day	indistinguishable from non-treated OA HACs	similar	up to 8 days
